The text below walks through data of PMC7730438, “Generation of KS-58 as the first K-Ras(G12D)-inhibitory peptide presenting anti-cancer activity in vivo” (Scientific Reports, 2020).

Assay [1] addresses T1, recombinant K-Ras(G12D) protein (Homo sapiens, UniProt P01116, G12D).
T1 construct: purchased Abcam ab268712
Put plainly: Cell-free ELISA binding of biotin-labeled peptides. The settings on record: Fig. 4A. (In an ELISA, binding on a coated surface is turned into a signal by an enzyme label.)
Protocol: (§2) Ras protein was directly coated to wells of Nunc MaxiSorp microplate in PBS containing 0.01 mM GDP and 10 mM MgCl2 overnight at 4 °C. The wells were blocked in PBS containing 0.1% bovine serum albumin (BSA) for 0.5 h at 25 °C.
For binding assays of biotin-labeled peptides, Ras protein (25 μg/mL) was coated to wells of Nunc MaxiSorp 96-well clear plate (439,454) as described above. After washing the wells three times using PBS containing 0.1% Tween20 (PBST), biotin-labeled peptides in PBS containing 0.025% BSA, 0.01 mM GDP, and 10 mM MgCl2 were added to the wells. After 0.5 h incubation at 25 °C, the wells were washed with PBST three times. Bound biotin-labeled peptides were detected using horseradish peroxidase (HRP)-conjugated streptavidin (SA) (ab7403, Abcam) and 1-Step Ultra TMB-ELISA Substrate Solution (34028, Thermo Fisher Scientific). The amounts of HRP in the wells were measured by absorbance to 450 nm.

Assay [2] deals with PANC-1 xenografts (pancreas weight). Put plainly: Combination administration test of KS-58 and gemcitabine. In kind it is in vivo, mice. The settings on record: gemcitabine alone, 40 mg/kg intraperitoneally once every 4 days for 4 weeks. How it is done: To establish orthotropic xenograft tumor models, 2.5 × 10^6 cells/50 µL of PANC-1 cells were injected into the pancreas of BALB/cAJcl-nu/nu male mice (8 weeks old; CLEA Japan, Inc.). KS-58 was dissolved in DMSO and then tenfold diluted by saline. The peptide solution was then injected intravenously to the mice bearing tumors once every 2 days for 4 weeks (40 mg/kg, n = 7). Organ weights of the pancreas, liver, and kidney were measured. In combination administration test, gemcitabine hydrochloride solution (Nipponkayaku) was tenfold diluted by saline and then injected intraperitoneally to the mice bearing tumors once every 4 days for 4 weeks (40 mg/kg, n = 10), and peptide solution prepared as a same manner described above was injected intravenously to the mice bearing tumors once every 2 days for 4 weeks (10, 20, or 40 mg/kg, n = 10). Organ weights of the pancreas were measured.

The target in assay [3] is SmBiT-fused K-Ras(G12D) (human) (UniProt P01116). Put plainly: split reporter (BiFC, NanoBiT); NanoBiT in transfected HEK293T cells; peptides (30 µM) added to the cells for 2 h; remaining K-Ras(G12D)-SOS1 or K-Ras(G12D)-BRAF luminescence in % of no peptide.
Assay [4] concerns the target Recombinant human K-Ras(G12D) (human) (UniProt P01116).
Assay [5] concerns A427 cells. Put plainly: Cell proliferation assay (CellTiter-Glo, 72 h). In kind it is cell-based, human. The settings on record: A427 (G12D), peptide 30 µM, n = 4, ± SEM. How it is done:
A427 (ATCC HTB-53), A549 (ATCC CCL-185), H1975 (ATCC CRL-5908), PANC-1 (ATCC CRL-1469), MIA PaCa-2 (ATCC CRL-1420), and Capan-1 (ATCC HTB-79) cells were purchased from ATCC, and each cell was cultured in medium supplemented with 10% fetal bovine serum (FBS), according to the protocol recommended by the manufacture.
The effect of peptides on cell proliferation of A427, A549, H1975, PANC-1, MIA PaCa-2, and Capan-1 cells was determined by 72 h exposure to peptides. Cells were seeded at 1000 cells/well in 96-well tissue culture plates in each growth media and allowed to adhere overnight on day 0. Peptides were solved in DMSO and then diluted with each growth media for a constant final DMSO concentration of 0.5%. Media in the wells were removed and replaced with diluted peptide solutions, and cells were incubated for 3 days. During the incubation, medium containing the peptides was replaced every day. Relative cell numbers were estimated using CellTiter-Glo assay kit (G7570, Promega, WI, USA) according to the manufacturer’s instructions. Luminescence was detected using SpectraMax i3x (MOLECULAR DEVICES, CA, USA). Cell proliferation rate (%) was calculated based on cell numbers at day 0 as 0% and at day 3 without peptide treatment as 100%.
Background: ATP-based viability assays read luminescence as a measure of living cells.

In assay [6] the target is T2, K-Ras(G12D)^GTP–BRAF interaction (Homo sapiens, UniProt P01116, G12D).
T2 construct: host or cells: HEK293T
Kind of assay: Intracellular PPI inhibition assay using NanoBiT in HEK293T cells. In kind it is cell-based. The settings on record: peptide 30 µM, n = 4. How it is done:
(§1) Intracellular protein–protein interaction (PPI) inhibition assays were carried out using the NanoBiT system (Promega). Three kinds of plasmids with CMV promoters, which encodes human K-Ras(G12D) fusing SmBiT to the N-terminus, encodes human SOS1 fusing LgBiT to the C-terminus, and encodes human BRAF fusing LgBiT to the C-terminus, were prepared by Promega. Each combination of plasmids was transfected to HEK293T cells by FuGENE HD Reagent (E2312, […]). After 30 h incubation at 37 °C under 5% CO2, the cells were recovered, and seeded to 96-well tissue culture white plate with 10% FBS containing DMEM, and incubated overnight. Peptides were added to the plate and incubated for another 2 h. Nano-Glo (Promega, N2011) was directly added to the plate, and luminescence was immediately monitored. Intracellular K-Ras(G12D)^GDP–SOS1 and K-Ras(G12D)^GTP–BRAF interactions (%) were calculated based on no peptide treatment as 100% and only transfection of plasmid encoding LgBiT fusion protein as 0%.

The target in assay [7] is T3, K-Ras(G12D)^GDP–SOS1 interaction (Homo sapiens, UniProt P01116, G12D).
T3 construct: host or cells: HEK293T
The description is as above. In kind it is cell-based. As to conditions: peptide 30 µM, n = 4. How it is done:
as §1

Assay [8] addresses T1, recombinant K-Ras(G12D) protein. Kind of assay: Competition binding assay (ELISA) against Biotin-KRpep-2d. The settings on record: competitive inhibition of Biotin-KRpep-2d (100 nM) binding; n = 4, ± SEM.
Protocol: as §2
For competition binding assays, Ras protein (250 ng/mL) was coated to wells of Nunc MaxiSorp 96-well clear plate (439454) as described above. […] The amounts of HRP in the wells were measured by absorbance at 450 nm.

“And” between values parts separate entries of the source, which are not always exact repeats. Equal values may be shown once. Starred links: 1 amine or outer side, 2 acyl side, 3 side chain; linkers in the order of their positions; H or OH if unused. Positions of bridges follow the written chain, without caps; N, C: chain ends. Non-standard residues stand in square brackets, D forms with d. Residues, ends and D or L forms follow the SMILES beside them. Groups on a side chain read outwards from the residue. *: point of attachment. Biotin = O=C1N[C@H]2[C@H](CS[C@H]2CCCCC(=O)*)N1; Phe(4-F) = N[C@@H](Cc1ccc(F)cc1)C(=O)O; X1 = CCCCCCC[C@H](N[*:1])C(=O)[*:2]; Nle = CCCC[C@H](N)C(=O)O; X2 = C(C[*:1])C[*:2]; Ahx = NCCCCCC(=O)O; βAla = NCCC(=O)O

`CCCCCCC[C@@H]1NC(=O)[C@@H]2CSCCCSC[C@@H](NC(=O)[C@H](Cc3c[nH]c4ccccc34)NC(=O)[C@H](CCCCNC(=O)CCCCCNC(=O)CCCC[C@@H]3SC[C@@H]4NC(=O)N[C@@H]43)NC(=O)[C@H](CC(=O)O)NC(=O)[C@H](Cc3ccc(F)cc3)NC(=O)[C@H](CO)NC1=O)C(=O)NCCC(=O)N1CCC[C@H]1C(=O)N[C@@H](CCCC)C(=O)N2` [Biotin-KS-58, c[βAla-Pro-Nle-c(Cys-Anon-Ser-4fF-Asp-Lys(εN-biotin)-Trp-^DCys)]] (cyclo([βAla]P[Nle]C[X1]S[Phe(4-F)]DK([Ahx-Biotin])W[dC]); linker 4-11 via X2): in assay [1], the “Binding activity to K-Ras(G12D) protein in ELISA (in words)” value is “peptide concentration-dependent binding”.
In the case of `Nc1ccn([C@@H]2O[C@H](CO)[C@@H](O)C2(F)F)c(=O)n1` [Gemcitabine, gemcitabine], the “cell growth of PANC-1 (pancreas weight; Sham = 0%, vehicle = 100%)” value in assay [2] worked out at 66%.
In assay [3], KS-58 (peptide) displayed a percent of K-Ras(G12D)-BRAF NanoBiT luminescence left at 30 µM peptide of 53.8% and a percent of K-Ras(G12D)-SOS1 NanoBiT luminescence left at 30 µM peptide of 35.5%. For the same molecule, in assay [4], the cell proliferation (%) of A427 cells (K-Ras G12D) at 30 µM peptide, 72 h, CellTiter-Glo was 21.1%; the cell proliferation (%) of PANC-1 cells (K-Ras G12D) at 30 µM peptide, 72 h, CellTiter-Glo came to 50.1%; the pERK (%) in A427 cells (K-Ras G12D) at 30 µM peptide came out at 26%; the pERK (%) in PANC-1 cells (K-Ras G12D) at 30 µM peptide came to 57.6%.
With “c(βAla-Pro-Nle-Cys-Anon-Ser-4fF-Asp-Pro-Trp-^DCys) [KS-58(monocyclic)]”, in assay [5], the “Cell proliferation (%)” value was 87.1 ± 1.4%. Moreover, the “Intracellular K-Ras(G12D)^GTP–BRAF interaction (luminescence, %)” value in assay [6] is reported as “weaker inhibition activity than KS-58”. In addition, the “Intracellular K-Ras(G12D)^GDP–SOS1 interaction (luminescence, %)” value in assay [7] is “weaker inhibition activity than KS-58”.
In the case of “c[Arg-Arg-Arg-Arg-c(Dap-Pro-Nle-Trp-Anon-Dap-Cha-Asp-Pro-Trp-Asp)-Arg-Arg-Arg-Arg] [KS-36]”, the “K-Ras(G12D)-binding activity, fold-value compared to the parental KRpep-2d set as 1.0” value in assay [8] is “about 30 Fold”. In assay [5], the “Cell proliferation (%)” value is 33.1% and 33.1 ± 9.6%.
